Source: patent publication EP4603105A1, “PHARMACEUTICAL COMPOSITION CONTAINING CYCLIC COMPOUND HAVING SELECTIVE KRAS INHIBITORY EFFECT AGAINST HRAS AND NRAS” (CHUGAI SEIYAKU KABUSHIKI KAISHA, priority 2022, dated 2024)
Where two headings read alike, the source gives them in different places. Where a SMILES comes first, the peptide text is derived from it. Bridges are numbered along the chain shown (N, C = ends). [ ]: non-standard residue; d: D form. The star is where a group is joined. hPhe(3-Cl-4-CF3) = N[C@@H](CCc1ccc(C(F)(F)F)c(Cl)c1)C(=O)O; NPrPhe(4-CF3) = CCCN[C@@H](Cc1ccc(C(F)(F)F)cc1)C(=O)O; NEtPhe(4-Me) = CCN[C@@H](Cc1ccc(C)cc1)C(=O)O; NMeGly(cPent) = CN[C@H](C(=O)O)C1CCCC1; Hyp = O=C(O)[C@@H]1C[C@@H](O)CN1; NMeD = CN[C@@H](CC(=O)O)C(=O)O; NMeL = CN[C@@H](CC(C)C)C(=O)O; Morpholide = C1CN(*)CCO1; NMeA = CN[C@@H](C)C(=O)O; Ac5c = NC1(C(=O)O)CCCC1; Aze = O=C(O)[C@@H]1CCN1; Ac4c = NC1(C(=O)O)CCC1; Sar = CNCC(=O)O

What was measured:
[1] = target: HRAS wild-type protein (Homo sapiens, UniProt P01112); assay: Binding to HRAS by surface plasmon resonance (SPR), KD and KD ratio to KRAS
Method in brief: (§1)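 Single-cycle kinetics on GDP-loaded biotin-Avi RAS captured to ~100–300 RU; 75 s ascending injections, 100 µL/min, 30°C. HBS pH 7.4 + 10 mM MgCl2/10 µM GDP/4% DMSO. 1:1 fit, KD.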

[2] = target: GDP-bound NRAS wild-type protein (Homo sapiens, UniProt P01111); assay: Binding to NRAS by surface plasmon resonance (SPR), KD and KD ratio to KRAS
Method in brief: as §1

[3] = system: human lung cancer strain NCI-H441; assay type: cell-based
Method in brief: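 Proliferation was scored by […] measured after the reagent was added to cultures kept at 37°C in 5% carbon dioxide.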

[4] = ratio of the KD value with respect to HRAS wild-type protein to the KD value with respect to KRAS
[5] = ratio of the KD value with respect to GDP-bound NRAS wild-type protein to the KD value with respect to KRAS
[6] = ratio of KD for HRAS wild-type protein to KD for KRAS
[7] = ratio of KD for GDP-bound NRAS wild-type protein to KD for KRAS

Chain of GDP-bound NRAS wild-type protein (P01111 whole entry): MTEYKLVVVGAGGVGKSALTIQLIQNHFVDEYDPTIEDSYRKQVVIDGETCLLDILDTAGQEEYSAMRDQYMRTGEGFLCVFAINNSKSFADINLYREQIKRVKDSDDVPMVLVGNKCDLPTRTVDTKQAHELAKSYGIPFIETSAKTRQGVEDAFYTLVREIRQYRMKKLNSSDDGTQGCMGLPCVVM
Chain of HRAS wild-type protein (P01112 whole entry): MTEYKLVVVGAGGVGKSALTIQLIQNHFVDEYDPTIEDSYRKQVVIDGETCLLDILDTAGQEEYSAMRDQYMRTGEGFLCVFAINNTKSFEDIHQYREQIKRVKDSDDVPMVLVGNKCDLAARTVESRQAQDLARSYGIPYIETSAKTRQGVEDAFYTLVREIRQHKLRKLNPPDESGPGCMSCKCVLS

IC50 [3] | SMILES | HRAS /KRAS [1, 4] | NRAS /KRAS [2, 5] | HRAS /KRAS [1, 6] | NRAS /KRAS [2, 7] | IC50 ([3]; NCI-H441 cells, 4 days, CellTiter-Glo, read-out: NCl-H441 IC50)
4.5 nM | CCO[C@@H]1C[C@H]2C(=O)NC3(CCC3)C(=O)N(C)[C@@H](C3CCCC3)C(=O)N(C)[C@H](C(=O)N3CCOCC3)CC(=O)N(C)[C@@H](CC3CCCC3)C(=O)N[C@@H]([C@@H](C)CC)C(=O)N(C)CC(=O)N(C)[C@H]3CCCCN(C3=O)[C@@H](Cc3ccc(C(F)(F)F)cc3)C(=O)N(C)CC(=O)N[C@@H](CCc3cc(F)c(C(F)(F)F)c(F)c3)C(=O)N2C1 [PP0715] | B (a compound having 3 or more and less than 10 is denoted as B) | C (A compound having a KD ratio of 0.1 or more and less than 3 is denoted as C) | – | – | –
2 nM | CCO[C@@H]1C[C@H]2C(=O)NC3(CCCC3)C(=O)N(C)[C@@H](C3CCCC3)C(=O)N(C)[C@H](C(=O)N3CCOCC3)CC(=O)N(C)[C@@H](CC(C)C)C(=O)N[C@@H]([C@@H](C)CC)C(=O)N(C)[C@@H](C)C(=O)N3CC[C@H]3C(=O)N(CC)[C@@H](Cc3ccc(C)cc3)C(=O)N(C)CC(=O)N[C@@H](CCc3ccc(C(F)(F)F)c(Cl)c3)C(=O)N2C1 [PP0014] ([NMeL]I[NMeA][Aze][NEtPhe(4-Me)][Sar][hPhe(3-Cl-4-CF3)][Hyp](Et)[Ac5c][NMeGly(cPent)][NMeD]-Morpholide; lactam N-11) | – | – | C (A compound having a KD ratio of 0.1 or more and less than 3 is denoted as C) | C (A compound having a KD ratio of 0.1 or more and less than 3 is denoted as C) | –
– | CCC[C@H]1C(=O)N[C@@H]([C@@H](C)CC)C(=O)N(C)CC(=O)N(C)[C@H]2C/C=C\CCN(C2=O)[C@@H](Cc2ccc(C(F)(F)F)cc2)C(=O)N(C)CC(=O)N[C@@H](CCc2cc(F)c(Cl)c(OC)c2)C(=O)N2C[C@H](OCC)C[C@H]2C(=O)NC2(CC(C)(C)C2)C(=O)N(C)[C@@H](C2CCCC2)C(=O)N(C)[C@H](C(=O)N(C)C)CC(=O)N1C [PP2864] | – | – | A (a compound having 10 or more and less than 20 is denoted as A) | A (a compound having 10 or more and less than 20 is denoted as A) | 124 nM
4.1 nM | C#CCN1CC(=O)N(C)[C@H]2C/C=C\CCN(C2=O)[C@@H](Cc2ccc(C)cc2)C(=O)N(C)CC(=O)N[C@@H](CCc2cc(F)c(C(F)(F)F)c(F)c2)C(=O)N2C[C@H](OCC)C[C@H]2C(=O)NC2(CC(C)(C)C2)C(=O)N(C)[C@@H](C2CCCC2)C(=O)N(C)[C@H](C(=O)N(C)C)CC(=O)N(C)[C@@H](CC(C)C)C(=O)N[C@@H]([C@@H](C)CC)C1=O [PP2052] | A (a compound having 10 or more and less than 20 is denoted as A) | A (a compound having 10 or more and less than 20 is denoted as A) | – | – | –
45.7 nM | CCO[C@@H]1C[C@H]2C(=O)NC3(CCC3)C(=O)N(C)[C@@H](C3CCCC3)C(=O)N(CCC3CCC3)[C@H](C(=O)N3CCOCC3)CC(=O)N(C)[C@@H](CC(C)C)C(=O)N[C@@H]([C@@H](C)CC)C(=O)N(C)CC(=O)N(C)[C@H]3CCCCN(C3=O)[C@@H](Cc3ccc(C(F)(F)F)cc3)C(=O)N(C)CC(=O)N[C@@H](CCc3cc(F)c(C(F)(F)F)c(F)c3)C(=O)N2C1 [PP0650] | B (a compound having 3 or more and less than 10 is denoted as B) | C (A compound having a KD ratio of 0.1 or more and less than 3 is denoted as C) | – | – | –
4.6 nM | CCO[C@@H]1C[C@H]2C(=O)NC3(CCCC3)C(=O)N(C)[C@@H](C3CCCC3)C(=O)N(C)[C@H](C(=O)N(C)C)CC(=O)N(C)[C@@H](CC(C)C)C(=O)N[C@@H]([C@@H](C)CC)C(=O)N(C)CC(=O)N(C)[C@H]3C/C=C\CCN(C3=O)[C@@H](Cc3ccc(C)cc3)C(=O)N(C)CC(=O)N[C@@H](CCc3ccc(C(F)(F)F)c(OC)c3)C(=O)N2C1 [PP2197] | B (a compound having 3 or more and less than 10 is denoted as B) | A (a compound having 10 or more and less than 20 is denoted as A) | – | – | –
172 nM | CCCN1C(=O)CN(C)C(=O)CNC(=O)[C@H]([C@@H](C)CC)NC(=O)[C@H](CC(C)C)N(C)C(=O)C[C@@H](C(=O)N2CCOCC2)NC(=O)[C@H](C2CCCC2)N(C)C(=O)C2(CCC2)NC(=O)[C@@H]2CCCN2C(=O)[C@H](CCc2ccc(C(F)(F)F)c(Cl)c2)NC(=O)CN(C)C(=O)[C@@H]1Cc1ccc(C(F)(F)F)cc1 [PP0326] ([NMeL]IG[Sar][NPrPhe(4-CF3)][Sar][hPhe(3-Cl-4-CF3)]P[Ac4c][NMeGly(cPent)]D-Morpholide; lactam N-11) | – | – | B (a compound having 3 or more and less than 10 is denoted as B) | B (a compound having 3 or more and less than 10 is denoted as B) | –
5.5 nM | CCO[C@@H]1C[C@H]2C(=O)NC3(CC(C)(C)C3)C(=O)N(C)[C@@H](C3CCCC3)C(=O)N(C)[C@H](C(=O)N(C)CC)CC(=O)N(C)[C@@H](C3CCC3)C(=O)N[C@@H]([C@@H](C)CC)C(=O)N(C)CC(=O)N(C)[C@H]3C/C=C\CCN(C3=O)[C@@H](Cc3ccc(C(F)(F)F)cc3)C(=O)N(C)CC(=O)N[C@@H](CCc3cc(F)c(C(F)(F)F)c(F)c3)C(=O)N2C1 [PP2038] | A (a compound having 10 or more and less than 20 is denoted as A) | A (a compound having 10 or more and less than 20 is denoted as A) | – | – | –
